Results published in paper PMC6406907, “A H2AX–CARP-1 Interaction Regulates Apoptosis Signaling Following DNA Damage” (Cancers, 2019).
One block for each compound: values may come before it. No end group written: not given here.

Experiments:
[1] = test system: CARP-1, phospho-JNK1/2, phospho-H2AX, PARP; assay: Western blot of CARP-1, phospho-JNK1/2, γH2AX, cleaved PARP in MDA-MB-468; format: cell-based, human
MDA-MB-231 HBC cells = settings: MDA-MB-231, compared with untreated counterparts; ref [34]; cited from earlier work
DBC1 (CCAR2) = assay: Co-immunoprecipitation with Dbc1 (CCAR2); format: cell-based; settings: Dbc1-expressing PT67 (NIH3T3 murine fibroblast subline) cells, anti-Flag IP
Protocol: (Clontech) were first transfected with recombinant PLNCX2/Flag-Dbc1 plasmid (10), and stable, neomycin-resistant sublines were generated and characterized for Dbc1 expression essentially as described by us before (5; [35]). The Dbc1 expressing PT67 cells were then separately transfected with pcDNA3 vector, pcDNA3-Gst, pcDNA3-Gst-H2AX, pcDNA3-EGFP, or pcDNA3-EGFP-H2AX (1–35) plasmids. Approximately 1mg of cell lysate from each of transfected, Dbc1-expressing, PT67 cells was subjected to immunoprecipitation using anti-Flag tag M2 antibodies (F1804, Sigma). The immunoprecipitates were then analyzed by WB by probing the membrane with anti-Gst (top autoradiograph), anti-p53 D2H90 rodent specific rabbit mAb (32532S; Cell Signaling; 2nd autoradiograph from top), or anti-Fag tag (for Dbc1) antibodies (3rd autoradiograph from top). The membranes containing […] of respective cell lysates (marked as whole cell lysates) were subsequently probed with anti-Gst tag (Bottom left autoradiograph) or anti-EGFP antibodies (Bottom right autoradiograph) to ascertain expression of transfected, Gst, Gst-tagged H2AX proteins, EGFP, and EGFP-H2AX (1–35) proteins. The presence of respective proteins is indicated by an arrowhead on the left side of each blot. Approximate location of various molecular weight markers is indicated on the right side of each blot. kDa, kilodalton.
© 2019 by the authors. […]

Gst-H2AX (1–35) = assay: Gst-pulldown with Gst-H2AX (1–35); format: binding, human; settings: E. coli-expressed, 4 °C, 2 h, WB anti-HA, Figure 5B
Protocol: (§1) Logarithmically growing cells were either untreated or treated with different agents for various time periods. The cells were lysed to prepare protein extracts. IP was carried out by incubating approximately 1 mg of the protein lysate with appropriate antibodies. The immunoprecipitates were then analyzed by SDS-PAGE, followed by WB with respective, interacting protein. For Gst-pulldown, Gst-H2AX or various His-TAT-HA-tagged CARP-1 peptides were generated in Escherichia coli (E. coli) BL21 cells essentially as described by us previously. Briefly, the competent E. coli BL-21 (DE3) pLysS cells were transformed separately with various recombinant pGEX-4T-1 or pTAT-HA constructs. The transformed cells were then subjected to selection by combined presence of ampicillin and chloramphenicol; various isolates for each transformation were obtained and bacterial lysates were characterized for expression of fusion peptides. Cells from each isolate were grown in 4 mL of LB medium containing ampicillin only until the optical density (OD)600 reached 0.4–0.8. Expression of fusion peptides was induced over 2–4 h incubation periods after Isopropyl β-D-1-thiogalactopyranoside (IPTG) addition. The cells were harvested, and pellets were stored at −80 °C overnight. […]

Gst-H2AX = assay: Gst-pulldown with Gst-H2AX; format: binding, human; settings: E. coli-expressed, 4 °C, 2 h, WB anti-HA, Figure 5A
Protocol: as §1

H2AX (1–35) peptide = target: T1, H2AX (1–35) peptide (Homo sapiens, UniProt P16104); assay: Surface plasmon resonance, CARP-1 peptide with H2AX (1–35) peptide; format: binding; settings: SPR, PBST pH 7.4, 25 °C, 1:1 global fit
T1 construct: CARP-1 (636–650) and H2AX (1–35) peptides, each with ≥90% purity, were commercially synthesized; purchased
Protocol: Affinity purification of the Gst-tagged or His-tagged fusion proteins was carried out essentially following procedure previously described by us. Briefly, the bacteria expressing respective fusion protein were cultured in 500 mL of LB medium containing ampicillin until the OD600 reached 0.4–0.6. Protein expression was induced by addition of IPTG over an additional 2–4-h incubation at 37 °C. Cells were harvested, and pellets were stored overnight at −80 °C, and lysed in 4–5 mL of BPER lysis buffer containing DNAse I as detailed above. […] Fractions containing eluted fusion protein were pooled, and dialyzed overnight at 4 °C in 1–2 L of 1× Tris-buffered saline (BioRad, Hercules, CA, USA) with multiple buffer changes. Following measurement of protein concentration, the purified protein was aliquoted and snap-frozen in liquid N2 for storage. […]
Next, kinetics of CARP-1 binding with H2AX were determined by surface plasmon resonance (SPR) technology (Profacgen, Shirley, NY, USA). […] The signal changes after binding and washing (in AU) were recorded as the assay value. Selected protein-grafted regions in the SPR images were analyzed, and the average reflectivity variations of the chosen areas were plotted as a function of time. Real-time binding signals were recorded and analyzed using a data analysis module (DAM) obtained from Plexera Bioscience (Seattle, WA, USA). […]

Compound: Cc1cc(NC(=O)c2cccc(NC(=O)/C=C/CN(C)C)c2)ccc1Nc1nccc(-c2cccnc2)n1 [JNK-IN-8]
JNK activation ([1]; MDA-MB-468, 5 μM JNK-IN-8, WB): total loss of JNK activation
levels of CARP-1 ([1]; MDA-MB-468, combination of JNK-IN-8 (5 μM) with Adriamycin, WB): elevated levels of CARP-1
γH2AX ([1]; MDA-MB-468, combined presence of JNK-IN-8 (5 μM) and Adriamycin, WB): reduced levels of γH2AX
levels of CARP-1 ([1]; MDA-MB-468, single agent (JNK-IN-8 at 5 μM), WB): elevated levels of CARP-1
viabilities (MDA-MB-231 HBC cells): significantly reduced viabilities

Compound: H2AX (1–35): commercially synthesized H2AX (1–35) peptide; epitope of H2AX (tested as EGFP-tagged protein) (MSGRGKTGGKARAKAKSRSSRAGLQFPVGRVHRLL; UniProt P16104 1-35, looked up, fragment)
interaction with DBC1 (DBC1 (CCAR2)): does not interact

binding with Gst-H2AX protein (Gst-H2AX): bound with Gst-H2AX protein
Compound: His-TAT-HA-CARP-1 (631–660): E. coli-expressed His-TAT-HA-tagged CARP-1 peptide (WSKLDPKTMKVNDLRKELESRALSSKGLKS; also: His, TAT and HA tags kept, end not given here)
binding with Gst-H2AX (1–35) (Gst-H2AX (1–35)): bound with Gst-H2AX and Gst-H2AX (1–35) proteins

kon (H2AX (1–35) peptide; read-out: Ka (association rate constant)): 2320 M⁻¹ s⁻¹
koff (H2AX (1–35) peptide; read-out: Kd (dissociation rate constant)): 0.000292 s⁻¹
Compound: WSKLDPKTMKVNDLRKELESRALSSKGLKS [CARP-1 (631–660)]
